The values that follow come from patent publication US20230391752A1, “PYRROLIDINE-3-CARBOXAMIDE DERIVATIVES AND RELATED USES” (Chulalongkorn University, priority 2020, published 2023).

Molecules are shown by their SMILES. A value given as a limit tells only on which side of the number the result lay.

In series [1] the test system is HBV. Briefly: In vitro anti-HBV activity in HepG2.2.15 cell line (intracellular HBV DNA by qPCR at 1 μM). Type of series: cell-based. Conditions: Hepatitis B virus, 144 h; HepG2.2.15 cells, 1 μM compound, 6 days, intracellular HBV DNA as percentage compared to vehicle control (0.5% DMSO). An outline of the steps:
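HepG2.2.15 cells given compound at 1 μM (0.5% DMSO final) for 3 days, then fresh compound-containing medium for 3 more days. After 6 days intracellular HBV DNA measured by qPCR. Expressed as % of 0.5% DMSO vehicle control and binned into letter ranges.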
Background: In qPCR the cycle at which signal appears reflects the starting amount.

Series [2] has as its system HBV. The experiment in a line: Effect on intrahepatic HBV DNA levels in HepG2.2.15 cells (EC50). Conditions: Hepatitis B virus, 144 h, 6 days, intrahepatic HBV DNA by qPCR, read-out: Anti-HBV DNA (EC50). Type of series: cell-based. The protocol: HepG2.2.15 cells were treated with compounds, at various concentrations in 10% FCS containing medium, at 37° C. for three days. After that the medium was removed and fresh medium containing the compound was added to the cells for another 3 days. After 6 days of treatment, intrahepatic HBV DNA from cell lysates were isolated. Then qPCR reaction of DNA was performed to measure total HBV DNA levels using specific primer set. The fifty-percent effective concentrations (EC50) for HBV DNA inhibition, relative to no drug controls, was determined using nonlinear fitting curve model. EC50 ranges for HBV DNA inhibition were as follows: A>0.3 μM, B=0.05-0.3 μM, C<0.05 μM (Table B).

Series [3] in a line: Cytotoxicity (MTT) in HepG2.2.15 cells. The series is classed as cell-based. As to conditions: human, 6 days treatment, read-out: HepG2.1.15 cytotoxicity (CC50). The protocol: HepG2.2.15 cells were seeded onto 96-well culture plate and allowed to adhere for 24 hours. The cells were treated with various concentrations of the compounds for 6 days. After treatment, the culture media were discarded and further incubated with serum-free media containing […] of 3-(4,5-dimethylthiazol-2-yl)-2,5-diphenyl tetrazolium bromide (MTT) for 2 hour. The resulting formazan crystals were completely dissolved in dimethyl sulfoxide (DMSO), and then measured absorbance at 570 nm using microplate reader. The concentrations of compounds producing 50% cell death (CC50) were determined from a fitting of concentration-response curve (% cell viability versus concentration) to a four-parameter equation.

Series [4] has as its target T1, HBV core protein (Cp149) (Hepatitis B virus genotype D subtype ayw, UniProt P03146).
T1 construct: HBV core C-terminally truncated protein (HBV Cp149); made in house
The experiment in a line: HBV capsid assembly by size exclusion chromatography (SEC). The series is classed as biochemical. As to conditions: 50 μM compound, 15 μM Cp149, 16 hours at 21° C.

Series [5] can be described thus: Pharmacokinetic study in rats. As to conditions: for F (%) Rat: PO 0.3 to 2.0 mg/kg; for clearance / Vd / half-life: male, Sprague-Dawley, plasma, rat; for clearance / Vd: IV 0.2 to 0.5 mg/kg; for clearance: read-out: CL (mL/min/kg) Rat; for Vd: read-out: Vd,ss (L/kg) Rat; for half-life: read-out: t1/2 (h) Rat (converted). Type of series: in vivo, male Sprague-Dawley rats. The protocol:
Test compounds were administered to male Sprague-Dawley rats and male Beagle dogs by oral (PO) and intravenous (TV) administration. For TV dosing, test compounds were dosed at 0.2 to 0.5 mg/kg using a formulation of 10% dimethyl sulfoxide in 20% hydroxypropyl beta-cyclodextrin solution via IV bolus. For PO dosing, test compounds were dosed at 0.3 to 2.0 mg/kg using a formulation of 40% polyethylene glycol 400 in water via oral gavage. Blood samples were collected at pre-dose and various time points up to 24 hours post-dose, and centrifuged to obtain plasma samples. The plasma concentrations of test compounds were quantified by LC-MS/MS methods. The relevant pharmacokinetic parameters (Table D) were calculated via non-compartmental analysis using WinNonlin (Phoenix™, version 8.3).

T1 sequence (P03146 1-149): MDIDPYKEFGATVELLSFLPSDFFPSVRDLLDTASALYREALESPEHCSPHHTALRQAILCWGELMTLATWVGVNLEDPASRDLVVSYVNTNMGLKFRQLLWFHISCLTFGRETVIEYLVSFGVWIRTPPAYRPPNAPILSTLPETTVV

Consider `C[C@H]1[C@@H](C(=O)Nc2ccc(F)c(C#N)c2)CCN1C(=O)c1ccc(C2CC2)[nH]1` [Example 74, (2S,3S)—N-(3-cyano-4-fluorophenyl)-1-(5-cyclopropyl-1H-pyrrole-2-carbonyl)-2-methylpyrrolidine-3-carboxamide], for which the activity at 1 µM in series [1] is less than 45%. Also, in series [2], the EC50 lay within 0.05 to 0.3 µM. Besides, the CC50 at 6 days in series [3] lay in the range of 10 to 25 µM. The “Size of induced capsids based on SEC retention times” value (“Size of induced capsids based” below) in series [4] was “induced capsids similar in size to NVR 3-778”. Moreover, in series [5], the “F (%) Rat” value is reported as approximately 100%, the clearance turned out to be 3 mL/min/kg, the Vd turned out to be 0.72 L/kg and the half-life was 3.4 h.

For `Cc1cc2[nH]ncc2cc1-c1ccc(C(=O)N2CC[C@H](C(=O)Nc3cc(F)c(F)c(F)c3)C2)[nH]1` [Example 122, (S)-1-(5-(6-methyl-1H-indazol-5-yl)-1H-pyrrole-2-carbonyl)-N-(3,4,5-trifluorophenyl) pyrrolidine-3-carboxamide], in series [1], the activity at 1 µM is less than 45%. The EC50 in series [2] is 0.05 to 0.3 µM. Also, the CC50 at 6 days in series [3] was in the range of 10 to 25 µM. For the same compound, the “Size of induced capsids based” value in series [4] is “induced capsids similar in size to NVR 3-778”.

As for `Cc1[nH]nc(C(F)(F)F)c1-c1ccc(C(=O)N2CC[C@H](C(=O)Nc3ccc(F)c(C#N)c3)[C@@H]2C)[nH]1` [Example 113, (2S,3S)—N-(3-cyano-4-fluorophenyl)-2-methyl-1-(5-(5-methyl-3-(trifluoromethyl)-1H-pyrazol-4-yl)-1H-pyrrole-2-carbonyl)pyrrolidine-3-carboxamide], the activity at 1 µM in series [1] was less than 45%. Moreover, the EC50 in series [2] is less than 0.05 µM. Moreover, the 50% cytotoxic concentration (CC50) at 6 days in series [3] fell in the range of 10 to 25 µM. In addition, the “Size of induced capsids based” value in series [4] is “induced capsids similar in size to NVR 3-778”.

In series [1], `Cc1cc(NC(=O)[C@H]2CCN(C(=O)c3ccc(-c4c(C(F)(F)F)n[nH]c4C)[nH]3)C2)ccc1F` [Example 114] gave an activity at 1 µM of less than 45%. Besides, the EC50 in series [2] is less than 0.05 µM. Further, in series [3], the CC50 at 6 days is 10 to 25 µM. The “Size of induced capsids based” value in series [4] is “induced capsids similar in size to NVR 3-778”.

On to `Cc1cc(NC(=O)[C@H]2CCN(C(=O)c3ccc(-c4cccnc4C#N)[nH]3)C2)ccc1F` [Example 150, (S)-1-(5-(2-cyanopyridin-3-yl)-1H-pyrrole-2-carbonyl)-N-(4-fluoro-3-methylphenyl)pyrrolidine-3-carboxamide], for which the activity at 1 µM in series [1] was less than 45%. Further, the concentration giving a half-maximal response (EC50) in series [2] lay within 0.05 to 0.3 µM. The CC50 at 6 days in series [3] was more than 25 µM. Besides, in series [4], the “Size of induced capsids based” value is recorded as “induced capsids similar in size to NVR 3-778”.

For `Cc1cc(NC(=O)[C@H]2CCN(C(=O)c3[nH]c4ccccc4c3Cl)C2)ccc1F` [Example 2, (S)-1-(3-chloro-1H-indole-2-carbonyl)-N-(4-fluoro-3-methylphenyl)pyrrolidine-3-carboxamide], the activity at 1 µM in series [1] was less than 45%. In addition, the EC50 in series [2] was less than 0.05 µM. The CC50 at 6 days in series [3] was more than 25 µM. Besides, in series [4], the “Size of induced capsids based” value is “capsid retention times between BAY 41-4109 and NVR 3-778”.

Regarding `Cc1cc(NC(=O)[C@H]2CCN(C(=O)c3ccc(-c4c(C)cc[nH]c4=O)[nH]3)[C@H]2C)ccc1F` [Example 120, (2S,3S)—N-(4-fluoro-3-methylphenyl)-2-methyl-1-(5-(4-methyl-2-oxo-1,2-dihydropyridin-3-yl)-1H-pyrrole-2-carbonyl)pyrrolidine-3-carboxamide], the activity at 1 µM in series [1] was less than 45%. Further, the EC50 in series [2] was in the range of 0.05 to 0.3 µM. The CC50 at 6 days in series [3] is more than 25 µM. The “Size of induced capsids based” value in series [4] is recorded as “induced capsids similar in size to NVR 3-778”.

As for `Cc1cc2[nH]ncc2cc1-c1ccc(C(=O)N2CC[C@H](C(=O)Nc3ccc(F)c(C#N)c3)C2)[nH]1` [Example 123, (S)—N-(3-cyano-4-fluorophenyl)-1-(5-(6-methyl-1H-indazol-5-yl)-1H-pyrrole-2-carbonyl) pyrrolidine-3-carboxamide], the activity at 1 µM in series [1] was less than 45%. In series [2], the EC50 fell in the range of 0.05 to 0.3 µM. In series [3], the CC50 at 6 days lay within 10 to 25 µM. Also, in series [4], the “Size of induced capsids based” value is “induced capsids similar in size to NVR 3-778”.

In series [1], `O=C(Nc1cc(F)c(F)c(F)c1)[C@H]1CCN(C(=O)c2cc3ccccc3[nH]2)C1` [Example 4, (S)-1-(1H-indole-2-carbonyl)-N-(3,4,5-trifluorophenyl)pyrrolidine-3-carboxamide] had an activity at 1 µM of less than 45%. Besides, the EC50 in series [2] was more than 0.3 µM. In addition, the half-maximal cytotoxic concentration (CC50) at 6 days in series [3] was more than 25 µM. Moreover, the “Size of induced capsids based” value in series [4] is “induced capsids similar in size to NVR 3-778”.

Turning to `Cc1ncnc(C)c1-c1ccc(C(=O)N2CC[C@H](C(=O)Nc3ccc(F)c(Cl)c3)C2)[nH]1` [Example 99, (S)—N-(3-chloro-4-fluorophenyl)-1-(5-(4,6-dimethylpyrimidin-5-yl)-1H-pyrrole-2-carbonyl) pyrrolidine-3-carboxamide], the activity at 1 µM in series [1] was less than 45%. Besides, the EC50 in series [2] was less than 0.05 µM. Also, in series [3], the CC50 at 6 days lay within 10 to 25 µM. Besides, the “Size of induced capsids based” value in series [4] was “induced capsids similar in size to NVR 3-778”. In series [5], the “F (%) Rat” value is reported as 36%, the clearance is 38.4 mL/min/kg, the Vd was 2.34 L/kg and the half-life is 1 h.

In series [1], `Cc1ncnc(C)c1-c1ccc(C(=O)N2CC[C@H](C(=O)Nc3cc(F)c(F)c(F)c3)[C@@H]2C)[nH]1` [Example 111, (2S,3S)-1-(5-(4,6-dimethylpyrimidin-5-yl)-1H-pyrrole-2-carbonyl)-2-methyl-N-(3,4,5-trifluorophenyl)pyrrolidine-3-carboxamide] gave an activity at 1 µM of less than 45%. The EC50 in series [2] is less than 0.05 µM. For the same compound, in series [3], the CC50 at 6 days was less than 10 µM. Also, the “Size of induced capsids based” value in series [4] is listed as “induced capsids similar in size to NVR 3-778”.

Take `Cc1ccc(C(=O)N2CC[C@H](C(=O)Nc3cc(F)c(F)c(Cl)c3)[C@@H]2C)[nH]1` [Example 20, (2S,3S)—N-(3-chloro-4,5-difluorophenyl)-2-methyl-1-(5-methyl-1H-pyrrole-2-carbonyl) pyrrolidine-3-carboxamide]: the activity at 1 µM in series [1] is less than 45%. In addition, the 50% effective concentration (EC50) in series [2] is more than 0.3 µM. In addition, the CC50 at 6 days in series [3] lay within 10 to 25 µM. The “Size of induced capsids based” value in series [4] is “induced capsids similar in size to NVR 3-778”.

For the compound `Cc1cnnc(C)c1-c1ccc(C(=O)N2CC[C@H](C(=O)Nc3ccc(F)c(F)c3)C2)[nH]1` [Example 115, (S)—N-(3,4-difluorophenyl)-1-(5-(3,5-dimethylpyridazin-4-yl)-1H-pyrrole-2-carbonyl)pyrrolidine-3-carboxamide], the activity at 1 µM in series [1] was less than 45%. Also, the EC50 in series [2] is 0.05 to 0.3 µM. Moreover, in series [3], the cytotoxic concentration (CC50) at 6 days was more than 25 µM. In addition, in series [4], the “Size of induced capsids based” value is “induced capsids similar in size to NVR 3-778”.

As for `C[C@H]1[C@@H](C(=O)Nc2cc(F)c(F)c(F)c2)CCN1C(=O)c1ccc(Cl)[nH]1` [Example 60, (2S,3S)-1-(5-chloro-1H-pyrrole-2-carbonyl)-2-methyl-N-(3,4,5-trifluorophenyl)pyrrolidine-3-carboxamide], the activity at 1 µM in series [1] is less than 45%. The EC50 in series [2] was 0.05 to 0.3 µM. Also, in series [3], the CC50 at 6 days was more than 25 µM. For the same compound, the “Size of induced capsids based” value in series [4] is given as “induced capsids similar in size to NVR 3-778”.

The term EC50 denotes the midpoint of the concentration-response curve. For orientation: CC50 means the concentration that lowers cell viability or growth by half.
